Measured values from patent US20170166870A1, “HUMAN HEPATIC 3D CO-CULTURE MODEL AND USES THEREOF” (Vrije Universiteit Brussel, priority 2014, published 2017).
Values joined by “and” are separate entries in the source; they are usually repeats but may differ in a detail not shown here. Equal values may be shown once. Read-outs that look alike come from different tables or passages of the source.

Legend:
3D HepaRG mono-culture [1] = assay: APAP toxicity assay, cell viability by ATP (Cell titer Glo); type: cell-based; settings: Homo sapiens, 0% DMSO, read-out: APAP EC50 values (±stdev)
Protocol: (§1) APAP toxicity assay was performed in 3D HepaRG/co-culture as well as in 3D HepaRG monoculture. For 24 h, starting at day 20, cells were exposed to a range of APAP concentrations between 0.5 and 80 mM, keeping cells with the solvent (0.1% DMSO) as a control. For some experiments the culture medium was supplemented with 2.5 mM valproic acid (VPA sodium salt, Sigma-Aldrich) or with cytokine mixture (Raicevic et al.,2012)-interleukin (IL)-1β 25 ng/mL (Peprotech, Rocky Hill, N.J., USA), interferon (IFN)-γ 10^3 U/mL, tumor necrosis factor (TNF)-a 50 ng/mL, and IFN-α 3·10^3 U/mL (all from Prospec, Inc., East Brunswick, N.J., USA). For the recovery assay, at the end of APAP incubation, cells were washed using HepaRG culture 0% DMSO medium and kept in the same medium for 3 more days.
(§2) At the end of the incubation period, 5 spheroids per condition were pooled and lysed for RNA analyses, while the remaining spheroids per condition were lysed individually for viability analysis using the Cell titer Glo kit (Promega) for ATP measurements following the instructions of the manufacturer.

3D HepaRG mono-culture [2] = assay: mRNA expression of HSC activation markers (qPCR) after APAP incubation; type: cell-based, human; settings: 20 mM APAP, 24h, Assays 1-3
Protocol: as §1, §2
(§3) Total RNA was extracted from cells using the ReliaPrep RNA Cell Miniprep System (Promega, Madison, Wis.). Reverse-transcription using the Revert Aid Kit (ThermoFisher Scientific, St. Leon-Rot, Germany) allowed conversion of RNA to cDNA. The RT reaction was performed at 25° C. for ten minutes followed by 30 minutes at 50° C. For quantitative real-time polymerase chain reaction (qPCR), GoTaq QPCR Master Mix with BRYTE green (Promega, Madison, Wis.) was used, subjected to qPCR in a 7500 real time PCR system and analysed using System SDS software v2.0.5 (Applied Biosystems), using GAPDH for normalisation.

3D HepaRG/HSC co-culture [3] = assay: as above; type: cell-based, human; settings: additional 3 days in culture upon APAP washout
Protocol: as §1, §2, §3

3D HSC mono-culture [4] = assay: APAP toxicity on HSC; type: cell-based, human; settings: APAP 0.5-80 mM, 24 h
Protocol: as §1, with “days. […]” for “days.”
We investigated the effect of APAP on the different cell types by measurement of the two major energy producing pathways assessing at the mitochondrial functional level. For that purpose, we measured the Oxygen Consumption Rate (OCR) and Glycolisis (through proton production—Extracellular Acidification rate, ECAR) using the XF Cell Mito Stress Test Kit (Seahorse Biosciences) 0, 12 and 24 hours of APAP incubation in the three 3D cultures. […]

3D HepaRG/HSC co-culture [5] = assay: Single and repeated exposure, gene expression of HSC activation markers; type: cell-based, human; settings: for HSC activation (up-regulation of activation markers, mRNA): serum-free medium
Protocol: Single and repeated exposure. For the single and repeated compound exposure cell spheroids (3D HepaRG/HSC, 3D HepaRG and 3D HSC) were exposed respectively on day 20 for 24 h or every second day from day 8 to day 21 in serum-free medium with no additional solvent. Cells were exposed to a range of 8 concentrations between 0.5 and 80 mM for APAP single-dose, 0.125 and 40 mM for APAP repeated-dose, 0.3 and 500 μM Allyl Alcohol (AA, Sigma-Aldrich), 1.9 and 1000 μM Methotrexate (MTX, Pfizer, NY, USA). For the recovery assay, on day 21, cells were washed using serum-free medium and kept for 3 extra days.
For the cell culture samples, total RNA from 4-6 pooled spheroids was extracted from cells using the RNeasy Micro Kit (Qiagen, Venlo, Limburg, Netherlands). In the mouse assays, sorted HSC from different mice were lysed separately. Total RNA from tissue cultured cells was extracted using ReliaPrep RNA Cell Miniprep System (Promega).
Reverse-transcription using the Revert Aid Kit (ThermoFisher Scientific, Waltham, Massachusetts, USA) allowed conversion of RNA to cDNA. The RT reaction was performed at 25° C. for ten minutes followed by 30 minutes at 50° C. For quantitative real-time polymerase chain reaction (qPCR), GoTaq QPCR Master Mix with BRYTE green (Promega) was used, subjected to qPCR in a 7500 real time PCR system and analysed using System SDS software v2.0.5 (Applied Biosystems, Waltham, Mass., USA), using GAPDH for normalisation. Reliability of GAPDH as house-keeping gene was determined using Normfinder (Anderson et al., 2004). Fold change differences between samples were determined using the comparative Ct (δδCt) method. The expression level of different targets, relative to GAPDH (δCt) and relative to the calibrator, was given by 2^−δδCt.

3D HepaRG = settings: read-out: APAP EC50 values (±stdev), cited from earlier work
3D HSC mono-culture [6] = assay: mRNA expression of HSC activation markers (qPCR) after APAP incubation; type: cell-based, human; settings: 20 mM APAP, 24h, Assays 1-3

## CC(=O)Nc1ccc(O)cc1 [APAP, Acetaminophen]
3D HepaRG mono-culture [1]; 144 h, Day 6/7, current study
  EC50: 11.6 mM
3D HepaRG mono-culture [1]; 504 h, Day 21/22, current study
  EC50: 11.6 ± 2.15 mM
3D HepaRG mono-culture [2]
  Col1a1 mRNA fold increase: 4.80 +/− 4.83 fold and 3.01 +/− 0.06 fold
  aSMA mRNA fold increase: 0.69 +/− 0.09 fold and 1.06 +/− 0.13 fold
3D HepaRG/HSC co-culture [3]
  HSC activation markers after washout: decrease of the HSC activation markers
3D HSC mono-culture [4]
  toxic effect on the HSC: only observed at the highest concentrations
3D HepaRG/HSC co-culture [5]; repeated exposure
  concentration of peak HSC activation: 5 to 10 mM
  HSC activation (up-regulation of activation markers, mRNA): toxicity and HSC activation both in single and repeated-exposure
3D HepaRG/HSC co-culture [5]; single exposure
  concentration of peak HSC activation: 20 to 40 mM
  recovery of HSC 3 days after compound washout: observed
3D HepaRG/HSC co-culture [5]; single exposure 24 h
  HSC activation (up-regulation of activation markers, mRNA): toxicity and HSC activation both in single and repeated-exposure
3D HepaRG; Day 6/7, Gunness et al. 2013, 2% DMSO
  EC50: 2.7 ± 7.14 mM
3D HepaRG; Day 21/22, Gunness et al. 2013, 2% DMSO
  EC50: 10.1 ± 9.9 mM
3D HSC mono-culture [6]
  Loxl2 mRNA fold increase: 1.13 +/− 0.05 fold and 0.70 +/− 0.23 fold and 0.85 +/− 0.86 fold
